{
  "source": "patent EP0533849B1",
  "about": "(ROUSSEL UCLAF, priority 1991, dated 1992)",
  "biological_target": "Sucrose Phosphate Synthase (Zea mays, UniProt P31927)",
  "sequence (P31927 whole entry)": "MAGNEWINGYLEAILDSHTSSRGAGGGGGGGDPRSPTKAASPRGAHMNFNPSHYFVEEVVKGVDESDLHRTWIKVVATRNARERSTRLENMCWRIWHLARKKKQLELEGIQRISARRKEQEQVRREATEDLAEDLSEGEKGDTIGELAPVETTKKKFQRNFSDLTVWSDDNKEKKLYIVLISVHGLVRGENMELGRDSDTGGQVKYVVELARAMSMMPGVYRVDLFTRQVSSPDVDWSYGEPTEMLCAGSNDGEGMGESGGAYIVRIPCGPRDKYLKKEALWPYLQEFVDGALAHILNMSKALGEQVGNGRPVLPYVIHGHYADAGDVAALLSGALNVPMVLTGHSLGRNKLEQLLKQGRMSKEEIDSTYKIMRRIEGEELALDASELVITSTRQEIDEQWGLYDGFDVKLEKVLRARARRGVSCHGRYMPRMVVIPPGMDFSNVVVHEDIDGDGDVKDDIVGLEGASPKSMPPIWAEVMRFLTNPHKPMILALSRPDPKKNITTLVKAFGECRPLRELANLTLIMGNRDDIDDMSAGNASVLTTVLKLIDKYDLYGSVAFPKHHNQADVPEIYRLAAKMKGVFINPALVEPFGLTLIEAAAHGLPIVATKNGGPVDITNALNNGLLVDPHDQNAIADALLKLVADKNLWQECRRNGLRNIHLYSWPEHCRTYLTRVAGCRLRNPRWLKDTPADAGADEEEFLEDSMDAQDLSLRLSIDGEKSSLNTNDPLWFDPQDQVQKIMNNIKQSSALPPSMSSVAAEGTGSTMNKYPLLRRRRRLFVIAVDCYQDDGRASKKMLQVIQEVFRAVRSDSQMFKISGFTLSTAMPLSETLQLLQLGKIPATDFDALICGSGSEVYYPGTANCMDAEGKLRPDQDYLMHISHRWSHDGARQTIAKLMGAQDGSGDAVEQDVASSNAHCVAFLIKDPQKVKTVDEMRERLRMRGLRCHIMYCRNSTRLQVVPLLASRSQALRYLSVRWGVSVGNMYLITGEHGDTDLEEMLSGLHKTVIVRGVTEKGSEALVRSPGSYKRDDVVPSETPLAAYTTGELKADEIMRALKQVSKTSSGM",
  "conditions": "phosphate gradient of the HAC (hydroxyapatite) stage",
  "method": "During purification SPS activity is followed in 2 ways : • a) either by means of a colorimetric test (P.S. Kerr et al., Planta., 1987, 170 : 515-519) called resorcinol test described below. […] In practice, to 45 µl (microliter) of enzymatic preparation 25 µl of a buffered solution containing the two substrates is added (UDPG 70 mM, F6P 28 mM, MgCl2 15 mM, HEPES 25 mM pH 7,5). After incubation at 37°C, reaction is stopped by adding 70 µl of NaOH in solution and heating at 95°C during 10 mn. After cooling, 0,25 ml of a solution 0,1 % resorcinol in ethanol 95 % is added, then 0,75 ml of HCl 30 % is added. The OD 520 mM is read after incubation 8 mn at 80 mn, and cooling. • b) or by means of a coupled enzymatic system (S. Harbron et al., Anal. Biochem. 1980, 107 : 56-59) being composed in the following way : [drawing 3]\nThe disappearance of the NADH absorption at 340 nm is monitored 1 mole of NAD formed or 1 mole of NADH consumed corresponds to 1 mole of sucrose 6 P formed.\nIn pratice, in a quartz spectrophotometric tun thermostated at 37°C, the following solution are added. • 540 µl of HEPES buffered 50 mM, MgCl2 10 mM KCl 20 mM pH=7.5, • 250 µl of a mixture of substrates PEP (1,6 mM NaDH 0,6 mM, ATP 4 mM UDPG 112 mM), • 60 µl of an enzyme mixture (LDH 166,7 U/ml PK 333,3 U/ml, NPzK 66,7 U/ml), • 100 µl of F6P 112 mM. […]",
  "data": [
    {"substance": "phosphate", "values": [
      {"measurement": "inhibition of SPS activity", "value": "partially inhibit SPS activity"}
    ]}
  ]
}
